{"source": "paper PMC9276671", "about": "“A first-in-human Phase I dose-escalation trial of the novel therapeutic peptide, ALM201, demonstrates a favourable safety profile in unselected patients with ovarian cancer and other advanced solid tumours” (British Journal of Cancer, 2022)", "origin": "cited, not measured here", "key": {"cell viability": {"system": "cell viability", "conditions": "protocol Table 2; ref Investigator brochure (IB); cited from earlier work", "excerpt": "(§1) ALM201 also had no effect on cytok ..."}, "cell cycle": {"system": "cell cycle", "conditions": "protocol Table 2 (IC50 (nM)); ref Investigator brochure (IB); cited from earlier work", "excerpt": "as §1"}, "tubulin": {"system": "tubulin", "parameters": "method as in Investigator brochure (IB)", "conditions": "ref Investigator brochure (IB), cited from earlier work; for IC50: protocol Table 2, read-out: Tubulin polymerisation IC50; for Tubulin polymerisation IC50: protocol Table 3"}, "proliferation": {"system": "proliferation", "conditions": "protocol Table 3; ref Investigator brochure (IB); cited from earlier work", "excerpt": "as §1"}, "HMEC-1": {"system": "HMEC-1", "conditions": "protocol Table 3; ref Investigator brochure (IB); read-out: Tube formation IC50; cited from earlier work", "excerpt": "as §1"}, "[1]": {"system": "HMEC-1, a human vascular endothelial cell-line", "conditions": "protocol Table 3; ref Investigator brochure (IB); read-out: Wound scrape IC50; cited from earlier work", "excerpt": "page 37: Almac Discovery Confidential There are five main histological subtypes of ovarian cancer differing in tissue of origin, stage of presentation, sensitivity to chemotherapy, survival and driver genetic mutations. The most aggressive of these subtypes are the high grade serous tumours. […] ALM201 also had no effect on cytok ..."}}}
{"compound": "CC[C@]1(O)C[C@@H]2CN(CCc3c([nH]c4ccccc34)[C@@](C(=O)OC)(c3cc4c(cc3OC)N(C)[C@H]3[C@@](O)(C(=O)OC)[C@H](OC(C)=O)[C@]5(CC)C=CCN6CC[C@]43[C@@H]65)C2)C1", "note": "[Vinblastine]", "values": [{"measurement": "IC50", "setting": "cell viability", "result": 0.02, "unit": "nM"}, {"measurement": "Cell cycle arrest", "setting": "cell cycle", "result": "Yes"}, {"measurement": "IC50", "setting": "tubulin", "result": "[…]"}]}
{"compound": "Bevacizumab", "values": [{"measurement": "IC50", "setting": "proliferation", "result": 158, "unit": "nM"}, {"measurement": "IC50", "setting": "HMEC-1", "result": 2400, "unit": "nM"}, {"measurement": "Tubulin polymerisation IC50", "setting": "tubulin", "result": "No effect"}, {"measurement": "IC50", "setting": "[1]", "result": 59, "unit": "nM"}]}
{"compound": "CCN(CC)CCNC(=O)c1c(C)[nH]c(/C=C2\\C(=O)Nc3ccc(F)cc32)c1C", "note": "[Sunitinib]", "values": [{"measurement": "IC50", "setting": "proliferation", "result": "[…]"}, {"measurement": "IC50", "setting": "HMEC-1", "result": 4.4, "unit": "nM"}, {"measurement": "Tubulin polymerisation IC50", "setting": "tubulin", "result": "No effect"}, {"measurement": "IC50", "setting": "[1]", "result": 8.9, "unit": "nM"}]}
{"compound": "COc1ccc(C[C@@H](O)c2cc(OC)c(OC)c(OC)c2)cc1O", "note": "[Combretastatin]", "values": [{"measurement": "IC50", "setting": "cell viability", "result": 0.2, "unit": "nM"}, {"measurement": "Cell cycle arrest", "setting": "cell cycle", "result": "Yes"}, {"measurement": "IC50", "setting": "tubulin", "result": 360, "unit": "nM"}]}
